“And” between values parts separate entries of the source, which are not always exact repeats. Equal values may be shown once.
Settings: Liquid; for mass density: Vibrating tube method; for viscosity: Vibrating wire viscometry

OCCOCCOCCO [triethylene glycol]
Settings | mass density [kg/m3] | viscosity
283.15 K, 100 kPa | 1130.8 | –
283.15 K, 660 kPa | 1131 | –
283.15 K, 1150 kPa | 1131.2 | –
283.15 K, 1570 kPa | 1131.4 | –
283.15 K, 2090 kPa | 1131.6 | –
283.15 K, 3090 kPa | 1132 | –
283.15 K, 5060 kPa | 1132.9 | –
283.15 K, 6940 kPa | 1133.6 | –
283.15 K, 10020 kPa | 1134.9 | –
283.15 K, 14850 kPa | 1136.9 | –
283.15 K, 19830 kPa | 1138.9 | –
283.15 K, 24700 kPa | 1140.8 | –
283.15 K, 29600 kPa | 1142.7 | –
283.15 K, 34510 kPa | 1144.6 | –
283.15 K, 39360 kPa | 1146.4 | –
283.15 K, 44290 kPa | 1148.2 | –
283.15 K, 49180 kPa | 1150 | –
283.15 K, 54110 kPa | 1151.7 | –
283.15 K, 58970 kPa | 1153.4 | –
283.15 K, 63860 kPa | 1155.1 | –
283.15 K, 68790 kPa | 1156.8 | –
293.15 K, 100 kPa | 1122.9 | –
293.15 K, 640 kPa | 1123.1 | –
293.15 K, 1090 kPa | 1123.4 | –
293.15 K, 1600 kPa | 1123.6 | –
293.15 K, 2140 kPa | 1123.8 | –
293.15 K, 3080 kPa | 1124.2 | –
293.15 K, 5030 kPa | 1125.1 | –
293.15 K, 7010 kPa | 1125.9 | –
293.15 K, 9950 kPa | 1127.2 | –
293.15 K, 14850 kPa | 1129.3 | –
293.15 K, 19770 kPa | 1131.3 | –
293.15 K, 24660 kPa | 1133.3 | –
293.15 K, 29510 kPa | 1135.2 | –
293.15 K, 34610 kPa | 1137.2 | –
293.15 K, 39370 kPa | 1139.1 | –
293.15 K, 44320 kPa | 1141 | –
293.15 K, 49130 kPa | 1142.8 | –
293.15 K, 54050 kPa | 1144.6 | –
293.15 K, 59060 kPa | 1146.4 | –
293.15 K, 63780 kPa | 1148 | –
293.35 K, 240 kPa | – | 46.83 mPa·s [middle of 4 runs]
293.35 K, 1160 kPa | – | 47.82 mPa·s
293.35 K, 1200 kPa | – | 47.73 mPa·s
293.35 K, 1230 kPa | – | 47.49 mPa·s
293.35 K, 1240 kPa | – | 47.46 mPa·s and 47.21 mPa·s and 47.42 mPa·s
293.35 K, 2170 kPa | – | 48.09 mPa·s
293.35 K, 2200 kPa | – | 47.9 mPa·s
293.35 K, 2220 kPa | – | 47.44 mPa·s
293.35 K, 2270 kPa | – | 47.58 mPa·s
293.35 K, 5010 kPa | – | 49.43 mPa·s
293.35 K, 5030 kPa | – | 49.23 mPa·s
293.35 K, 5040 kPa | – | 49.42 mPa·s
293.35 K, 10520 kPa | – | 51.72 mPa·s
293.35 K, 10530 kPa | – | 51.62 mPa·s
293.35 K, 10540 kPa | – | 51.26 mPa·s
293.35 K, 10620 kPa | – | 51.34 mPa·s
293.35 K, 10630 kPa | – | 51.5 mPa·s
293.35 K, 20180 kPa | – | 56.36 mPa·s
293.35 K, 20210 kPa | – | 56.39 mPa·s and 56.29 mPa·s and 56.71 mPa·s
293.35 K, 29650 kPa | – | 61.22 mPa·s
293.35 K, 29660 kPa | – | 61.45 mPa·s
293.35 K, 62400 kPa | – | 81.01 mPa·s
293.35 K, 62810 kPa | – | 81.71 mPa·s
293.35 K, 63230 kPa | – | 82.04 mPa·s
303 K, 190 kPa | – | 28.88 mPa·s [middle of 5 runs]
303 K, 330 kPa | – | 28.5 mPa·s and 29.08 mPa·s
303 K, 340 kPa | – | 29.02 mPa·s
303 K, 1210 kPa | – | 29.06 mPa·s
303 K, 1220 kPa | – | 29.35 mPa·s and 29.62 mPa·s
303 K, 2000 kPa | – | 29.4 mPa·s
303 K, 2020 kPa | – | 29.29 mPa·s
303 K, 2030 kPa | – | 29.32 mPa·s
303 K, 2100 kPa | – | 29.31 mPa·s
303 K, 2150 kPa | – | 29.15 mPa·s
303 K, 5250 kPa | – | 30.07 mPa·s
303 K, 5270 kPa | – | 30.07 mPa·s
303 K, 5280 kPa | – | 30.31 mPa·s
303 K, 10160 kPa | – | 31.63 mPa·s
303 K, 10170 kPa | – | 31.41 mPa·s
303 K, 10190 kPa | – | 31.65 mPa·s
303 K, 10210 kPa | – | 31.52 mPa·s
303 K, 10220 kPa | – | 31.49 mPa·s and 31.52 mPa·s
303 K, 20290 kPa | – | 34.2 mPa·s
303 K, 20300 kPa | – | 34.25 mPa·s
303 K, 20320 kPa | – | 34.32 mPa·s
303 K, 20330 kPa | – | 34.25 mPa·s and 34.3 mPa·s
303 K, 30260 kPa | – | 37.03 mPa·s and 37.15 mPa·s and 37.36 mPa·s
303 K, 30270 kPa | – | 37 mPa·s
303 K, 50510 kPa | – | 43.39 mPa·s
303 K, 50590 kPa | – | 43.57 mPa·s
303 K, 50660 kPa | – | 43.63 mPa·s
303 K, 64010 kPa | – | 47.91 mPa·s

From the NIST ThermoML archive (doi:10.1016/j.fluid.2018.09.026)
